Reference: the NIST ThermoML archive (doi:10.1021/je700428f)

Experiment: xn = mol fraction of the nth substance listed
Details: 101 kPa, Liquid; for viscosity: Capillary tube (Ostwald / Ubbelohde) method

CCCCCCCCC [nonane] + COC(C)(C)C
Details | mass density [kg/m3] | viscosity [mPa·s]
273.15 K, x2 = 0 | 733.184 | 0.972
273.15 K, x2 = 0.1006 | – | 0.912
273.15 K, x2 = 0.1085 | 734.69 | –
273.15 K, x2 = 0.1722 | 735.67 | –
273.15 K, x2 = 0.2026 | – | 0.85
273.15 K, x2 = 0.2995 | – | 0.796
273.15 K, x2 = 0.3037 | 737.89 | –
273.15 K, x2 = 0.4011 | 739.94 | –
273.15 K, x2 = 0.4045 | – | 0.74
273.15 K, x2 = 0.5003 | – | 0.688
273.15 K, x2 = 0.5008 | 742.31 | –
273.15 K, x2 = 0.6005 | 745.08 | –
273.15 K, x2 = 0.6035 | – | 0.632
273.15 K, x2 = 0.6992 | 748.17 | –
273.15 K, x2 = 0.6998 | – | 0.586
273.15 K, x2 = 0.7975 | – | 0.54
273.15 K, x2 = 0.8005 | 751.89 | –
273.15 K, x2 = 0.8925 | 755.81 | –
273.15 K, x2 = 0.8971 | – | 0.491
278.15 K, x2 = 0 | 729.335 | 0.896
278.15 K, x2 = 0.1006 | – | 0.842
278.15 K, x2 = 0.1085 | 730.78 | –
278.15 K, x2 = 0.1722 | 731.71 | –
278.15 K, x2 = 0.2026 | – | 0.787
278.15 K, x2 = 0.2995 | – | 0.738
278.15 K, x2 = 0.3037 | 733.82 | –
278.15 K, x2 = 0.4011 | 735.78 | –
278.15 K, x2 = 0.4045 | – | 0.689
278.15 K, x2 = 0.5003 | – | 0.641
278.15 K, x2 = 0.5008 | 738.04 | –
278.15 K, x2 = 0.6005 | 740.68 | –
278.15 K, x2 = 0.6035 | – | 0.591
278.15 K, x2 = 0.6992 | 743.64 | –
278.15 K, x2 = 0.6998 | – | 0.549
278.15 K, x2 = 0.7975 | – | 0.505
278.15 K, x2 = 0.8005 | 747.2 | –
278.15 K, x2 = 0.8925 | 750.95 | –
278.15 K, x2 = 0.8971 | – | 0.46
283.15 K, x2 = 0 | 725.473 | 0.828
283.15 K, x2 = 0.1006 | – | 0.78
283.15 K, x2 = 0.1085 | 726.84 | –
283.15 K, x2 = 0.1722 | 727.73 | –
283.15 K, x2 = 0.2026 | – | 0.731
283.15 K, x2 = 0.2995 | – | 0.687
283.15 K, x2 = 0.3037 | 729.73 | –
283.15 K, x2 = 0.4011 | 731.59 | –
283.15 K, x2 = 0.4045 | – | 0.643
283.15 K, x2 = 0.5003 | – | 0.598
283.15 K, x2 = 0.5008 | 733.74 | –
283.15 K, x2 = 0.6005 | 736.26 | –
283.15 K, x2 = 0.6035 | – | 0.554
283.15 K, x2 = 0.6992 | 739.08 | –
283.15 K, x2 = 0.6998 | – | 0.514
283.15 K, x2 = 0.7975 | – | 0.474
283.15 K, x2 = 0.8005 | 742.47 | –
283.15 K, x2 = 0.8925 | 746.06 | –
283.15 K, x2 = 0.8971 | – | 0.433
288.15 K, x2 = 0 | 721.603 | 0.768
288.15 K, x2 = 0.1006 | – | 0.726
288.15 K, x2 = 0.1085 | 722.9 | –
288.15 K, x2 = 0.1722 | 723.73 | –
288.15 K, x2 = 0.2026 | – | 0.681
288.15 K, x2 = 0.2995 | – | 0.641
288.15 K, x2 = 0.3037 | 725.62 | –
288.15 K, x2 = 0.4011 | 727.39 | –
288.15 K, x2 = 0.4045 | – | 0.6
288.15 K, x2 = 0.5003 | – | 0.56
288.15 K, x2 = 0.5008 | 729.43 | –
288.15 K, x2 = 0.6005 | 731.81 | –
288.15 K, x2 = 0.6035 | – | 0.52
288.15 K, x2 = 0.6992 | 734.49 | –
288.15 K, x2 = 0.6998 | – | 0.484
288.15 K, x2 = 0.7975 | – | 0.446
288.15 K, x2 = 0.8005 | 737.72 | –
288.15 K, x2 = 0.8925 | 741.13 | –
288.15 K, x2 = 0.8971 | – | 0.407
293.15 K, x2 = 0 | 717.725 | 0.716
293.15 K, x2 = 0.1006 | – | 0.677
293.15 K, x2 = 0.1085 | 718.92 | –
293.15 K, x2 = 0.1722 | 719.72 | –
293.15 K, x2 = 0.2026 | – | 0.637
293.15 K, x2 = 0.2995 | – | 0.601
293.15 K, x2 = 0.3037 | 721.51 | –
293.15 K, x2 = 0.4011 | 723.16 | –
293.15 K, x2 = 0.4045 | – | 0.564
293.15 K, x2 = 0.5003 | – | 0.526
293.15 K, x2 = 0.5008 | 725.09 | –
293.15 K, x2 = 0.6005 | 727.34 | –
293.15 K, x2 = 0.6035 | – | 0.489
293.15 K, x2 = 0.6992 | 729.87 | –
293.15 K, x2 = 0.6998 | – | 0.455
293.15 K, x2 = 0.7975 | – | 0.418
293.15 K, x2 = 0.8005 | 732.94 | –
293.15 K, x2 = 0.8925 | 736.17 | –
293.15 K, x2 = 0.8971 | – | 0.384
298.15 K, x2 = 0 | 713.834 | 0.669
298.15 K, x2 = 0.1006 | – | 0.634
298.15 K, x2 = 0.1085 | 714.95 | –
298.15 K, x2 = 0.1722 | 715.7 | –
298.15 K, x2 = 0.2026 | – | 0.598
298.15 K, x2 = 0.2995 | – | 0.564
298.15 K, x2 = 0.3037 | 717.36 | –
298.15 K, x2 = 0.4011 | 718.92 | –
298.15 K, x2 = 0.4045 | – | 0.529
298.15 K, x2 = 0.5003 | – | 0.496
298.15 K, x2 = 0.5008 | 720.73 | –
298.15 K, x2 = 0.6005 | 722.84 | –
298.15 K, x2 = 0.6035 | – | 0.461
298.15 K, x2 = 0.6992 | 725.22 | –
298.15 K, x2 = 0.6998 | – | 0.43
298.15 K, x2 = 0.7975 | – | 0.396
298.15 K, x2 = 0.8005 | 728.11 | –
298.15 K, x2 = 0.8925 | 731.18 | –
298.15 K, x2 = 0.8971 | – | 0.363
303.15 K, x2 = 0 | 709.929 | 0.628
303.15 K, x2 = 0.1006 | – | 0.596
303.15 K, x2 = 0.1085 | 710.96 | –
303.15 K, x2 = 0.1722 | 711.66 | –
303.15 K, x2 = 0.2026 | – | 0.563
303.15 K, x2 = 0.2995 | – | 0.532
303.15 K, x2 = 0.3037 | 713.21 | –
303.15 K, x2 = 0.4011 | 714.65 | –
303.15 K, x2 = 0.4045 | – | 0.498
303.15 K, x2 = 0.5003 | – | 0.468
303.15 K, x2 = 0.5008 | 716.34 | –
303.15 K, x2 = 0.6005 | 718.32 | –
303.15 K, x2 = 0.6035 | – | 0.436
303.15 K, x2 = 0.6992 | 720.55 | –
303.15 K, x2 = 0.6998 | – | 0.408
303.15 K, x2 = 0.7975 | – | 0.377
303.15 K, x2 = 0.8005 | 723.25 | –
303.15 K, x2 = 0.8925 | 726.13 | –
308.15 K, x2 = 0 | – | 0.59
308.15 K, x2 = 0.1006 | – | 0.56
308.15 K, x2 = 0.2026 | – | 0.531
308.15 K, x2 = 0.2995 | – | 0.502
308.15 K, x2 = 0.4045 | – | 0.47
308.15 K, x2 = 0.5003 | – | 0.443
308.15 K, x2 = 0.6035 | – | 0.413
